# Laboratory results taken from BindingDB's records for doi:10.1016/0960-894X(96)00063-7 (1996).
# Molecular target: Squalene monooxygenase (Sus scrofa)
# Assay: Compound was evaluated for the inhibition of pig liver microsomal squalene epoxidase.
structure (smiles),measurement,value
"CCN(C/C=C/C#CC(C)(C)C)Cc1cccc(NC[Si](C)(C)c2ccccc2C)c1 [(3-{[((E)-6,6-Dimethyl-hept-2-en-4-ynyl)-ethyl-amino]-methyl}-phenyl)-[(dimethyl-o-tolyl-silanyl)-methyl]-amine]",IC50,100 nM
